Key:
[1] = target: recombinant human His6-tagged PTP4A2 (Homo sapiens (Human), UniProt Q12974); experiment: In vitro biochemical analysis of PTP4A inhibition, DiFMUP substrate; conditions: DiFMUP 12 μM, 25 minutes, 25° C.; mean ± S.E.M.
[2] = target: recombinant human His6-tagged PTP4A3 (Homo sapiens (Human), UniProt O75365); experiment: as above; conditions: for preference among the PTP4A family members: PTP4A3 versus PTP4A1 and PTP4A2, from IC50 values
recombinant human His6-tagged PTP4A3, sequence (O75365 whole entry): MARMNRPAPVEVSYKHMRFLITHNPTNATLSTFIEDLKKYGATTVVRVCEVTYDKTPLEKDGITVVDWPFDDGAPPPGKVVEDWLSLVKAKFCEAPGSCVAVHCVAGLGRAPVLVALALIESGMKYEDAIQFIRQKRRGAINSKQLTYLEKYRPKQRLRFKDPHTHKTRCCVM

recombinant human His6-tagged PTP4A2, sequence (Q12974 whole entry): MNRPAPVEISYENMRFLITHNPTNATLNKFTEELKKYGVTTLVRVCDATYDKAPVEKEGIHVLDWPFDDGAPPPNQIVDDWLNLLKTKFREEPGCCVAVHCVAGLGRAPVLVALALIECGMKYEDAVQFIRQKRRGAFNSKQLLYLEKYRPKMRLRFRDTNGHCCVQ

IC50 [1] | IC50 PTP4A3 ([2]; DiFMUP 12 μM, 25 minutes, 25° C., mean ± S.E.M.) | Structure (SMILES) | preference among the PTP4A family members [2]
113 nM |  | N=C1C(=O)NC(=O)c2cc(-c3ccccc3Cl)sc21 [Compound 9k, 2-(2-Chlorophenyl)-7-iminothieno[3,2-c]pyridine-4,6(5H,7H)-dione] | even more pronounced preference for PTP4A3 compared with PTP4A2
264 nM |  | CN1C(=O)C(=N)c2sc(-c3ccccc3)cc2C1=O [Compound 9p, 7-Imino-5-methyl-2-phenylthieno[3,2-c]pyridine-4,6(5H,7H)-dione] | even more pronounced preference for PTP4A3 compared with PTP4A2
 |  | N=C1C(=O)NC(=O)c2cc(-c3ccc(OCCN4CCOCC4)cc3)sc21 [Compound 9o, 7-Imino-2-(4-(2-morpholinoethoxy)phenyl)thieno[3,2-c]pyridine-4,6(5H,7H)-dione] | little preference
 | failed to inhibit PTP4A3 | O=c1[nH]c(=O)c2cc(-c3ccccc3)sc2[nH]1 [JMS-038, 6-phenylthieno[2,3-d]pyrimidine-2,4(1H,3H)-dione, reference compound] | 
